Source: patent publication US20220362153A1, “COMPOSITIONS AND METHODS FOR PULMONARY SURFACTANT-BIOMIMETIC NANOPARTICLES” (priority 2019, published 2022)

Tested on: SH13 H7N9 virus
Design: species or system mice
Conditions: mouse, in vivo

poly IC
protection from lethal SH13 H7N9 challenge: did not provide any benefit over the vaccine alone
